Legend:
GDP KRAS G12D = GDP KRAS G12D (Homo sapiens, UniProt P01116, G12D); test: SPR binding affinity to GDP KRAS G12D (Biacore S200); conditions: GDP-loaded KRAS G12D, steady state KD
Method: (§1) The affinity of compounds of the present disclosure to RAS ligands was assessed using surface plasmon resonance (SPR) binding analysis using a Biacore S200 (GE Healthcare Life Sciences) instrument. The SPR binding analysis employed the following reagents and protocols:
(§2) Buffer preparation: To make 0.5 L add required amounts of stocks for: 20 mM Hepes, 150 mM NaCl, 5 mM MgCl2, 1 mM TCEP, 0.05% P20, and 5 μM nucleotide. Adjust pH to 7.4, then bring volume up to 475 mL 1.05×Filter through 0.2 μm cellulose acetate membrane. Remove a volume of buffer as No DMSO Buffer 1.05× and set aside. Add appropriate volume of DMSO to buffer to a final concentration 5% DMSO.
(§3) Chip preparation: Prime 2× with 5% DMSO buffer. Allow system to flow on standby throughout the day.
(§4) Sample preparation: Make a 20× compound solution in 100% DMSO of highest compound concentration to be screened (2 mM for final 100 μM compound). Add appropriate volume of 1.05× buffer without DMSO to give 5% DMSO and mix by pipetting. Centrifuge sample 18,000×g 5 min 25° C. Make appropriate serial dilutions from the highest concentration into 5% DMSO running buffer for the concentrations needed. Prepare 5.8% DMSO and 4.5% DMSO solvent correction solutions using buffer without DMSO. Make two more solvent corrections by mixing 200 μL 4.5% 500 μL 5.8%, and 400 μL 4.5% 300 μL 5.8%
(§5) Capture Avi-taggedprotein: Thaw protein stock on ice, aliquot into single use size and freeze at −80° C. for future use. Dilute protein (avi-KRAS WT, avi-KRAS-G12D, avi-KRAS-G12V, or avi-RhoA) appropriately, to 20 μg/mL to begin in 5% DMSO buffer. Manually inject at 10 μL/min 12 second contact time. Adjust flow and or contact time to achieve desired level of captured protein. When desired level of protein is captured, flow for 10 minutes to stabilize signal.
(§6) General Binding Level Screen Method: Choose LMW screen template in Fragment/LMW subfolder in Binding screen folder. 30 μL/min high performance injection, 60 sec contact and dissociation time, carry over control, extra wash with 50% DMSO for each injection. Fifteen Startup cycles to condition. Control samples before and after compound samples. For GppNHp loaded KRAS, control is 20 μM Raf1 RBD domain. Adjust this sample to final 5% DMSO to match running buffer. This process is performed at a temperature of 25° C. using a single chip per experiment.
(§7) Binding affinity determination: Compounds selected from the binding level screen are evaluated in a dose response to determine the binding affinity (KD). Serial dilutions of compounds are prepared and injected over the sensor chip using a flow rate of 30 μL/min with a 60 second contact and dissociation time. After double referencing of the sensorgrams the total level of compound binding at each concentration is calculated. The steady state binding affinity is calculated with a Langmuir binding model assuming a 1:1 interaction with a constrained Rmax using the BIAevaluation software.

GppNHp KRAS G12D = GppNHp KRAS G12D (Homo sapiens, UniProt P01116, G12D); test: SPR binding affinity to GppNHp KRAS G12D (Biacore S200); conditions: GppNHp-loaded KRAS G12D, steady state KD
Method: as §1, §2, §3, §4, §5, §6, §7

[1] = target: T1, Avi-KRAS G12D (1-169) GppNHp/RAF1 RBD-3xFLAG (52-151) (Homo sapiens, UniProt P01116, G12D); test: RAS-effector PPI HTRF disruption assay, Raf1-GppNHp-KRAS G12D; type: biochemical
T1 construct: 100 nM Avi-KRAS G12D (1-169) GppNHp
How it was run: (§8)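 Compounds (10-point, 3× dilution from 100 μM) were incubated with GppNHp-loaded KRAS–effector complex for 1 h at room temperature with shaking, followed by detection reagents for another 1 h. Complex levels: 375 nM for G12D/Q25A–PI3KCA, 100 nM for G12D–RAF1, 50 nM for G12V and WT–RAF1.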

[2] = target: T2, Avi-KRAS G12D/Q25A (1-169) GppNHp/3xFLAG-PI3KCA (157-299) (Homo sapiens, UniProt P01116, G12D/Q25A); test: RAS-effector PPI HTRF disruption assay, PI3KCA-GppNHp-KRAS G12D/Q25A; type: biochemical
T2 construct: 375 nM Avi-KRAS G12D/Q25A (1-169) GppNHp
How it was run: as §8

[3] = target: T3, Avi-KRAS G12V (1-169) GppNHp/RAF1 RBD-3xFLAG (52-151) (Homo sapiens, UniProt P01116, G12V); test: RAS-effector PPI HTRF disruption assay, Raf1-GppNHp-KRAS G12V; type: biochemical
T3 construct: 50 nM Avi-KRAS G12V (1-169) GppNHp
How it was run: as §8

[4] = target: T4, Avi-KRAS WT (1-169) GppNHp/RAF1 RBD-3xFLAG (52-151) (Homo sapiens, UniProt P01116); test: RAS-effector PPI HTRF disruption assay, Raf1-GppNHp-KRAS WT; type: biochemical
T4 construct: 50 nM Avi-KRAS WT (1-169) GppNHp
How it was run: as §8

[5] = test system: pERK in GP2d cells (KRAS G12D); test: Cell-based pERK HTRF assay in GP2d cell; conditions: GP2d, 1 h, 60 min incubation
How it was run: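 Phospho-ERK was measured by HTRF in lysates of KRAS G12D GP2d cells after 60 min of compound exposure. Nine concentrations were tested, half-log apart from a 1 μM top, with 0.25% DMSO throughout. Cells had been plated the previous day in DMEM with 10% FBS, and the detection antibodies were incubated 4–24 h at room temperature before reading.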

Chain of GDP KRAS G12D (P01116 1-188 isoform P01116-2 G12D): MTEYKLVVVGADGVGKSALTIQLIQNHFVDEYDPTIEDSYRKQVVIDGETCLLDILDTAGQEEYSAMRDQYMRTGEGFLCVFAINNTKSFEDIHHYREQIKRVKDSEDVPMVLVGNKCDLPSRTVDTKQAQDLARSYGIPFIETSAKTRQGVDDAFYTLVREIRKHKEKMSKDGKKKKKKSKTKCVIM
Chain of GppNHp KRAS G12D (P01116 1-188 isoform P01116-2 G12D): as above
T3 sequence (P01116 1-169 isoform P01116-2 G12V): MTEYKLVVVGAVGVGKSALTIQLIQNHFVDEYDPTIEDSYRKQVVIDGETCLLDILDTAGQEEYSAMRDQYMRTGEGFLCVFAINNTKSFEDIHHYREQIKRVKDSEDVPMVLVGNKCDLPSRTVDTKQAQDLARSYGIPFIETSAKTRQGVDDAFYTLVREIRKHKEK
T2 sequence (P01116 1-169 isoform P01116-2 G12D/Q25A): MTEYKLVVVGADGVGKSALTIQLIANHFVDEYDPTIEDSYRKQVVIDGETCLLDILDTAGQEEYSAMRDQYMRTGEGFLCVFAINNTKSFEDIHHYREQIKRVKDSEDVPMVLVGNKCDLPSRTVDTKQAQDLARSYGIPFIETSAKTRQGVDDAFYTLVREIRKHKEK
T4 sequence (P01116 1-169 isoform P01116-2): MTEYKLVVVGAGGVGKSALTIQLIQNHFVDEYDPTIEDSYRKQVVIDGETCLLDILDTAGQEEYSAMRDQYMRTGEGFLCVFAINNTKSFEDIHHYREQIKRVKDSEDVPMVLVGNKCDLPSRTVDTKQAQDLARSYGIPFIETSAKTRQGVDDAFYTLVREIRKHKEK
T1 sequence (P01116 1-169 isoform P01116-2 G12D): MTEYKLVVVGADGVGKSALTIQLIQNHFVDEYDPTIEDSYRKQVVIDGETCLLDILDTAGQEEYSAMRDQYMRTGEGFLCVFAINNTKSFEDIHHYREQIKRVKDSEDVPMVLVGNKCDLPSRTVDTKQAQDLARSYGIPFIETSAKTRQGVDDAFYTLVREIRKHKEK

SMILES	Kd (GDP KRAS G12D) [nM]	Kd (GppNHp KRAS G12D) [nM]	IC50 [1] [nM]	IC50 [2] [nM]	IC50 [3] [µM]	IC50 [4] [nM]	IC50 [5] [nM]
C[C@H]1NCCC1Oc1nc(OC[C@@]23CCCN2C[C@H](F)C3)nc2c(F)c(-c3ccc(F)c4sc(N)nc34)c(C(F)(F)F)cc12 (stereo partly drawn) [Compound 19]	≤ 100	100 to 1000	100 to 1000	100 to 1000	1 to 10	100 to 1000	≤ 100
Nc1nc2c(-c3c(C(F)(F)F)cc4c(OC5CC6CC[C@H](C5)N6)nc(OCC56CCCN5CCC6)nc4c3F)ccc(F)c2s1 (stereo partly drawn) [Compound 26]	≤ 100	≤ 100	≤ 100	100 to 1000	1 to 10	≤ 100	> 1000
C[C@@H]1C[C@@H](Oc2nc(OC[C@@]34CCCN3C[C@H](F)C4)nc3c(F)c(-c4ccc(F)c5sc(N)nc45)c(C(F)(F)F)cc23)CN1 (atropisomer, axis not shown) [Compound 20]	≤ 100	100 to 1000	100 to 1000	1000 to 10000	1 to 10	1000 to 10000	≤ 100
